Measured values reported in patent US20100267561A1, “HERBICIDAL PYRIDAZINONE DERIVATIVES” (priority 2007, published 2010).

Tests used:
Type in all cases: in vivo
[1] = system: large crabgrass (Digitaria sanguinalis); test: Test A pre-/postemergence plant response
Procedure, shortened: (§1)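 Greenhouse pot test: loam–sand soil; pre- and postemergence sprays applied same day; post plants 2–10 cm, 1–2 leaves. Readout ~10 d, visual % injury vs untreated (0 = none, 100 = complete control).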

[2] = system: velvetleaf (Abutilon theophrasti); test: Test A pre-/postemergence plant response
Procedure, shortened: as §1

[3] = system: morningglory (Ipomoea coccinea); test: Test A pre-/postemergence plant response
Procedure, shortened: as §1

[4] = system: giant foxtail (Setaria faberi); test: Test A pre-/postemergence plant response
Procedure, shortened: as §1

corn (Zea mays) = test: Test A pre-/postemergence plant response
Procedure, shortened: as §1

[5] = system: barnyardgrass (Echinochloa crus-galli); test: Test A pre-/postemergence plant response
Procedure, shortened: as §1

[6] = system: windgrass (Apera spica-venti); test: Test B postemergence plant response; conditions: for Windgrass plant response rating: 8 g ai/ha, postemergence, 0-100 scale; for Plant response rating, Windgrass: Postemergence
Procedure, shortened: (§2)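 Visual injury ratings on a 0–100 scale, where 100 means complete control, were made 13 to 15 days after postemergence treatment of greenhouse-grown plants at the 1- to 4-leaf stage.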

[7] = system: chickweed (Stellaria media); test: Test B postemergence plant response; conditions: for Chickweed plant response rating: 8 g ai/ha, postemergence, 0-100 scale; for Plant response rating, Chickweed: Postemergence
Procedure, shortened: as §2

[8] = system: winter barley (Hordeum vulgare); test: Test B postemergence plant response; conditions: for Barley plant response rating: 8 g ai/ha, postemergence, 0-100 scale; for Plant response rating, Barley: Postemergence, scale 0 to 100, 0 no effect, 100 complete control
Procedure, shortened: as §2

[9] = system: canarygrass (Phalaris minor); test: Test B postemergence plant response; conditions: for Canarygrass plant response rating: 8 g ai/ha, postemergence, 0-100 scale; for Plant response rating, Canarygrass: Postemergence
Procedure, shortened: as §2

[10] = system: yellow nutsedge (Cyperus esculentus); test: Test B pre-/postemergence plant response
Procedure, shortened: (§3)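 Visual scoring from 0 (no effect) to 100 (complete control) against untreated controls was done 13 to 15 days after greenhouse treatment. Chemicals were formulated in a surfactant-containing non-phytotoxic solvent and applied to soil preemergence or to 1- to 4-leaf (2-18 cm) plants postemergence.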

wild oat (Avena fatua) = test: Test B pre-/postemergence plant response
Procedure, shortened: as §3

[11] = system: wheat (Triticum aestivum); test: Test B pre-/postemergence plant response
Procedure, shortened: as §3

[12] = Postemergence, 31 g ai/ha, 0 to 100 scale, 0 no effect, 100 complete control
[13] = Postemergence, 125 g ai/ha, 0 to 100 scale, 0 no effect, 100 complete control
[14] = Preemergence, 31 g ai/ha, 0 to 100 scale, 0 is no effect, 100 is complete control
[15] = Preemergence, 125 g ai/ha, 0 to 100 scale (0 no effect, 100 complete control)
[16] = 62 g ai/ha, scale 0 to 100, 0 no effect, 100 complete control
[17] = 8 g ai/ha, postemergence, 0-100 scale
[18] = Postemergence, 16 g ai/ha, scale 0 to 100
[19] = Postemergence, 31 g ai/ha, scale 0 to 100
[20] = Postemergence, 62 g ai/ha, scale 0 to 100, 0 no effect, 100 complete control
[21] = Preemergence, 31 g ai/ha, scale 0 to 100 (0 no effect, 100 complete control)
[22] = Preemergence, 62 g ai/ha, scale 0 to 100
[23] = Preemergence, 8 g ai/ha, scale 0 to 100
[24] = Preemergence, 16 g ai/ha, scale 0 to 100
[25] = Preemergence, 62 g ai/ha, 0 to 100 scale, 0 no effect, 100 complete control

CCOC(=O)Oc1cnn(C)c(=O)c1-n1nc(-c2ccc(Cl)cc2)cc1C [Compound 53]
85: Plant response rating, Oat, Wild (wild oat (Avena fatua); [22]) | Plant response rating, Wheat [11, 19] | Plant response rating, Wheat [11, 20]
20: Plant response rating, Morningglory [3, 13] | Plant response rating, Windgrass ([6]; 16 g ai/ha, scale 0 to 100)
5: Wheat plant response rating [11, 17]
40: Plant response rating, Windgrass ([6]; 31 g ai/ha, scale 0 to 100) | Oat, Wild plant response rating (wild oat (Avena fatua); [23])
60: Plant response rating, Windgrass [6, 16]
95: Plant response rating, Oat, Wild (wild oat (Avena fatua); [19])
98: Plant response rating, Oat, Wild (wild oat (Avena fatua); [20])
70: Plant response rating, Corn (corn (Zea mays); [15])
90: Plant response rating, Crabgrass, Large [1, 14] | Plant response rating, Foxtail, Giant [4, 12] | Plant response rating, Corn (corn (Zea mays); [13]) | Plant response rating, Barnyardgrass [5, 12] | Plant response rating, Oat, Wild (wild oat (Avena fatua); [18])
55: Plant response rating, Wheat [11, 18] | Plant response rating, Wheat [11, 25]
100: Plant response rating, Crabgrass, Large [1, 13] | Plant response rating, Crabgrass, Large [1, 15] | Plant response rating, Foxtail, Giant [4, 13] | Plant response rating, Foxtail, Giant [4, 14] | Plant response rating, Foxtail, Giant [4, 15] | Plant response rating, Barnyardgrass [5, 13] | Plant response rating, Barnyardgrass [5, 14] | Plant response rating, Barnyardgrass [5, 15]
80: Plant response rating, Crabgrass, Large [1, 12] | Plant response rating, Corn (corn (Zea mays); [12]) | Oat, Wild plant response rating (wild oat (Avena fatua); [17]) | Plant response rating, Oat, Wild (wild oat (Avena fatua); [21])
65: Oat, Wild plant response rating (wild oat (Avena fatua); [24])
0: Plant response rating, Velvetleaf [2, 12] | Plant response rating, Velvetleaf [2, 13] | Plant response rating, Velvetleaf [2, 14] | Plant response rating, Velvetleaf [2, 15] | Plant response rating, Morningglory [3, 12] | Plant response rating, Morningglory [3, 14] | Plant response rating, Morningglory [3, 15] | Plant response rating, Corn (corn (Zea mays); [14]) | Windgrass plant response rating [6] | Chickweed plant response rating [7] | Plant response rating, Chickweed ([7]; 16 g ai/ha, scale 0 to 100) | Plant response rating, Chickweed ([7]; 31 g ai/ha, scale 0 to 100) | Plant response rating, Chickweed [7, 16] | Barley plant response rating [8] | Plant response rating, Barley ([8]; 16 g ai/ha) | Plant response rating, Barley ([8]; 31 g ai/ha) | Plant response rating, Barley ([8]; 62 g ai/ha) | Canarygrass plant response rating [9] | Plant response rating, Canarygrass ([9]; 16 g ai/ha, scale 0 to 100) | Plant response rating, Canarygrass ([9]; 31 g ai/ha, scale 0 to 100) | Plant response rating, Canarygrass [9, 16] | Nutsedge, Yellow plant response rating [10, 17] | Plant response rating, Nutsedge, Yellow [10, 18] | Plant response rating, Nutsedge, Yellow [10, 19] | Plant response rating, Nutsedge, Yellow [10, 20] | Plant response rating, Nutsedge, Yellow [10, 21] | Plant response rating, Nutsedge, Yellow [10, 22] | Nutsedge, Yellow plant response rating [10, 23] | Nutsedge, Yellow plant response rating [10, 24] | Plant response rating, Wheat [11, 21] | Wheat plant response rating [11, 24]

Cc1cc(-c2ccc(Cl)cc2)nn1-c1c(OC(=O)Oc2ccccc2)cnn(C)c1=O [Compound 54]
40: Plant response rating, Corn (corn (Zea mays); [12]) | Oat, Wild plant response rating (wild oat (Avena fatua); [23])
60: Plant response rating, Crabgrass, Large [1, 14] | Plant response rating, Corn (corn (Zea mays); [15]) | Plant response rating, Wheat [11, 19] | Plant response rating, Wheat [11, 20]
98: Plant response rating, Oat, Wild (wild oat (Avena fatua); [19]) | Plant response rating, Oat, Wild (wild oat (Avena fatua); [20])
95: Plant response rating, Oat, Wild (wild oat (Avena fatua); [22])
10: Plant response rating, Wheat [11, 21]
20: Plant response rating, Morningglory [3, 15] | Plant response rating, Windgrass ([6]; 16 g ai/ha, scale 0 to 100) | Plant response rating, Windgrass ([6]; 31 g ai/ha, scale 0 to 100)
75: Plant response rating, Oat, Wild (wild oat (Avena fatua); [21])
70: Plant response rating, Crabgrass, Large [1, 12] | Plant response rating, Barnyardgrass [5, 14] | Oat, Wild plant response rating (wild oat (Avena fatua); [24])
90: Plant response rating, Crabgrass, Large [1, 13] | Plant response rating, Foxtail, Giant [4, 12] | Plant response rating, Foxtail, Giant [4, 14] | Plant response rating, Corn (corn (Zea mays); [13]) | Plant response rating, Oat, Wild (wild oat (Avena fatua); [18])
80: Plant response rating, Barnyardgrass [5, 12] | Plant response rating, Windgrass [6, 16]
30: Plant response rating, Wheat [11, 18]
100: Plant response rating, Crabgrass, Large [1, 15] | Plant response rating, Foxtail, Giant [4, 13] | Plant response rating, Foxtail, Giant [4, 15] | Plant response rating, Barnyardgrass [5, 13] | Plant response rating, Barnyardgrass [5, 15]
85: Oat, Wild plant response rating (wild oat (Avena fatua); [17])
0: Plant response rating, Velvetleaf [2, 12] | Plant response rating, Velvetleaf [2, 13] | Plant response rating, Velvetleaf [2, 14] | Plant response rating, Velvetleaf [2, 15] | Plant response rating, Morningglory [3, 12] | Plant response rating, Morningglory [3, 13] | Plant response rating, Morningglory [3, 14] | Plant response rating, Corn (corn (Zea mays); [14]) | Windgrass plant response rating [6] | Chickweed plant response rating [7] | Plant response rating, Chickweed ([7]; 16 g ai/ha, scale 0 to 100) | Plant response rating, Chickweed ([7]; 31 g ai/ha, scale 0 to 100) | Plant response rating, Chickweed [7, 16] | Barley plant response rating [8] | Plant response rating, Barley ([8]; 16 g ai/ha) | Plant response rating, Barley ([8]; 31 g ai/ha) | Plant response rating, Barley ([8]; 62 g ai/ha) | Canarygrass plant response rating [9] | Plant response rating, Canarygrass ([9]; 16 g ai/ha, scale 0 to 100) | Plant response rating, Canarygrass ([9]; 31 g ai/ha, scale 0 to 100) | Plant response rating, Canarygrass [9, 16] | Nutsedge, Yellow plant response rating [10, 17] | Plant response rating, Nutsedge, Yellow [10, 18] | Plant response rating, Nutsedge, Yellow [10, 19] | Plant response rating, Nutsedge, Yellow [10, 20] | Plant response rating, Nutsedge, Yellow [10, 21] | Plant response rating, Nutsedge, Yellow [10, 22] | Nutsedge, Yellow plant response rating [10, 23] | Nutsedge, Yellow plant response rating [10, 24] | Wheat plant response rating [11, 17] | Wheat plant response rating [11, 24]
50: Plant response rating, Wheat [11, 25]

CCCC(=O)Oc1cnn(C)c(=O)c1-n1nc(-c2ccc(Cl)cc2)cc1C [Compound 56]
75: Plant response rating, Barley ([8]; 62 g ai/ha)
90: Plant response rating, Foxtail, Giant [4, 14] | Plant response rating, Corn (corn (Zea mays); [12]) | Plant response rating, Canarygrass ([9]; 31 g ai/ha, scale 0 to 100) | Plant response rating, Oat, Wild (wild oat (Avena fatua); [19]) | Plant response rating, Oat, Wild (wild oat (Avena fatua); [20]) | Plant response rating, Oat, Wild (wild oat (Avena fatua); [25]) | Plant response rating, Wheat [11, 20]
20: Plant response rating, Windgrass ([6]; 31 g ai/ha, scale 0 to 100) | Plant response rating, Windgrass [6, 16]
95: Plant response rating, Canarygrass [9, 16]
35: Plant response rating, Wheat [11, 21]
0: Plant response rating, Velvetleaf [2, 12] | Plant response rating, Velvetleaf [2, 13] | Plant response rating, Velvetleaf [2, 14] | Plant response rating, Velvetleaf [2, 15] | Plant response rating, Morningglory [3, 12] | Plant response rating, Morningglory [3, 13] | Plant response rating, Morningglory [3, 14] | Plant response rating, Morningglory [3, 15] | Windgrass plant response rating [6] | Plant response rating, Windgrass ([6]; 16 g ai/ha, scale 0 to 100) | Chickweed plant response rating [7] | Plant response rating, Chickweed ([7]; 16 g ai/ha, scale 0 to 100) | Plant response rating, Chickweed ([7]; 31 g ai/ha, scale 0 to 100) | Plant response rating, Chickweed [7, 16] | Barley plant response rating [8] | Nutsedge, Yellow plant response rating [10, 17] | Plant response rating, Nutsedge, Yellow [10, 18] | Plant response rating, Nutsedge, Yellow [10, 19] | Plant response rating, Nutsedge, Yellow [10, 20] | Plant response rating, Nutsedge, Yellow [10, 21] | Plant response rating, Nutsedge, Yellow [10, 25] | Nutsedge, Yellow plant response rating [10, 23] | Nutsedge, Yellow plant response rating [10, 24] | Oat, Wild plant response rating (wild oat (Avena fatua); [23])
60: Plant response rating, Oat, Wild (wild oat (Avena fatua); [21])
10: Wheat plant response rating [11, 24]
50: Plant response rating, Barley ([8]; 31 g ai/ha) | Canarygrass plant response rating [9] | Oat, Wild plant response rating (wild oat (Avena fatua); [24])
70: Plant response rating, Crabgrass, Large [1, 14]
100: Plant response rating, Crabgrass, Large [1, 13] | Plant response rating, Crabgrass, Large [1, 15] | Plant response rating, Foxtail, Giant [4, 12] | Plant response rating, Foxtail, Giant [4, 13] | Plant response rating, Foxtail, Giant [4, 15] | Plant response rating, Corn (corn (Zea mays); [13]) | Plant response rating, Barnyardgrass [5, 12] | Plant response rating, Barnyardgrass [5, 13] | Plant response rating, Barnyardgrass [5, 15]
85: Plant response rating, Canarygrass ([9]; 16 g ai/ha, scale 0 to 100) | Plant response rating, Oat, Wild (wild oat (Avena fatua); [18])
5: Oat, Wild plant response rating (wild oat (Avena fatua); [17]) | Wheat plant response rating [11, 17]
40: Plant response rating, Corn (corn (Zea mays); [14]) | Plant response rating, Barley ([8]; 16 g ai/ha)
80: Plant response rating, Crabgrass, Large [1, 12] | Plant response rating, Corn (corn (Zea mays); [15]) | Plant response rating, Barnyardgrass [5, 14] | Plant response rating, Wheat [11, 19] | Plant response rating, Wheat [11, 25]
65: Plant response rating, Wheat [11, 18]
